Measurements published in patent US10364245B2 (CHIESI FARMACEUTICI S.p.A., priority 2017, dated 2019).
Structures can show the parent of a compound that is named as a salt.

What follows are compounds tested against T1, p38 alpha (Homo sapiens, UniProt Q16539) (assay: P38 alpha enzyme inhibition assay (Alphascreen kinase activity assay)). Details: 100 pM p38 alpha, 2 hours preincubation at 25° C., 250 μM ATP, ATF-2 fusion protein; read-out: p38α inhibition.
T1 construct: purchased Invitrogen PV3304
T1 sequence (Q16539 whole entry, the tested form may be a part): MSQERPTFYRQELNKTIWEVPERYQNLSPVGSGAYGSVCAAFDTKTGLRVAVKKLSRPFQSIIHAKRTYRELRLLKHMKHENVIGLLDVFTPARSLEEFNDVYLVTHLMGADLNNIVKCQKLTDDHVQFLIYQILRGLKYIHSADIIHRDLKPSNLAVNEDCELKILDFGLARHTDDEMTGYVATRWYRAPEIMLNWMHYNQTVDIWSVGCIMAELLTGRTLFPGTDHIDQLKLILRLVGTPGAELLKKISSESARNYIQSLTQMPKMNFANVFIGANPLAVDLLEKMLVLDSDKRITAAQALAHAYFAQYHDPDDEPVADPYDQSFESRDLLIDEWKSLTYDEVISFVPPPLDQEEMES
Type: biochemical
Experimental: P38 Alpha Enzyme Inhibition Assay
The inhibitory activity of compounds was determined using an Alphascreen® (Perkin Elmer) based kinase activity assay. Kinase reactions consisted of 25 mM HEPES pH 7.5, 10 mM MgCl2, 100 μM Na3VO4, 2 mM DTT, 0.05 mg/ml Tween 20, 100 pM p38 alpha (Invitrogen, PV3304), 1% DMSO and 0.3 μg/ml ATF-2 fusion protein (New England Biolabs, 9224). Compounds were incubated under these conditions for 2 hours, at 25° C., prior to the initiation of the kinase activity by the addition of the 250 μM ATP. Reaction volumes were 20 μL. After 1 hr at 25° C. reactions were stopped by the adding 10 μL of 25 mM HEPES pH 7.5 containing 62.5 mM EDTA, 0.05% Triton X-100, 10% BSA and 0.83 ng/uL anti-phospho-ATF2 antibody (Abcam, ab28812). Detection was performed by measuring luminescence following the addition of Alphascreen Donor beads (Perkin Elmer 6765300) and Protein A Alphascreen Acceptor beads (Perkin Elmer 6760137), both at a final concentration of 20 ug/ml. IC50 values were determined from concentration-response curves.

IC50, 1 to 10 nM:
COC1CN(CCNC(=O)c2nc(NC(=O)N[C@H]3CC[C@@H](Oc4ccc5nnc(C(C)(C)OC)n5c4)c4ccccc43)cc(C(C)(C)C)n2)C1 [Example 167, 4-(tert-butyl)-N-(2-(3-methoxyazetidin-1-yl)ethyl)-6-(3-((1S,4R)-4-((3-(2-methoxypropan-2-yl)-[1,2,4]triazolo[4,3-a]pyridin-6-yl)oxy)-1,2,3,4-tetrahydronaphthalen-1-yl)ureido)pyrimidine-2-carboxamide]
CN(C)C1(CNC(=O)c2nc(NC(=O)N[C@H]3CC[C@@H](Oc4ccc5nnc(C(C)(C)C)n5c4)c4ccccc43)cc(C(C)(C)C)n2)CCC1 [Example 162, 4-(tert-butyl)-6-(3-((1S,4R)-4-((3-(tert-butyl)-[1,2,4]triazolo[4,3-a]pyridin-6-yl)oxy)-1,2,3,4-tetrahydronaphthalen-1-yl)ureido)-N-((1-(dimethylamino)-cyclobutyl)methyl)pyrimidine-2-carboxamide]
CC(C)c1nc(NC(=O)N[C@H]2CC[C@@H](Oc3ccc4nnc([C@]5(C)CCCN5C)n4c3)c3ccccc32)cc(C(C)(C)C)n1 [Example 42, 1-(6-(tert-Butyl)-2-isopropylpyrimidin-4-yl)-3-((1S,4R)-4-((3-((S)-1,2-dimethylpyrrolidin-2-yl)-[1,2,4]triazolo[4,3-a]pyridin-6-yl)oxy)-1,2,3,4-tetrahydronaphthalen-1-yl)urea]
CN(C)CCNC(=O)c1nc(NC(=O)N[C@H]2CC[C@@H](Oc3ccc4nnc(C(=O)N5CCOCC5)n4c3)c3ccccc32)cc(C(C)(C)C)n1 [Example 71, 4-(tert-butyl)-N-(2-(dimethylamino)ethyl)-6-(3-((1S,4R)-4-((3-(morpholine-4-carbonyl)-[1,2,4]triazolo[4,3-a]pyridin-6-yl)oxy)-1,2,3,4-tetrahydronaphthalen-1-yl)ureido)pyrimidine-2-carboxamide]
CO[C@@H](C)c1nnc2ccc(O[C@@H]3CC[C@H](NC(=O)Nc4cc(C(C)(C)C)nc(C(=O)NCCN5CCOCC5)n4)c4ccccc43)cn12 [Example 101, 4-(tert-butyl)-6-(3-((1S,4R)-4-((3-((S)-1-methoxyethyl)-[1,2,4]triazolo[4,3-a]pyridin-6-yl)oxy)-1,2,3,4-tetrahydronaphthalen-1-yl)ureido)-N-(2-morpholinoethyl)-pyrimidine-2-carboxamide]
CN(C)C1(CNC(=O)c2nc(NC(=O)N[C@H]3CC[C@@H](Oc4ccc5nnc(C(C)(C)C)n5c4)c4ccccc43)cc(C(C)(C)C)n2)CCOCC1 [Example 160, 4-(tert-butyl)-6-(3-((1S,4R)-4-((3-(tert-butyl)-[1,2,4]triazolo[4,3-a]pyridm-6-yl)oxy)-1,2,3,4-tetrahydronaphthalen-1-yl)ureido)-N-((4-(dimethylamino)-tetrahydro-2H-pyran-4-yl)methyl)pyrimidine-2-carboxamide]
CC(C)Cc1nnc2ccc(O[C@@H]3CC[C@H](NC(=O)Nc4cc(C(C)(C)C)nc(C(=O)NCCN5CCOCC5)n4)c4ccccc43)cn12 [Example 90, 4-(tert-butyl)-6-(3-((1S,4R)-4-((3-isobutyl-[1,2,4]triazolo[4,3-a]pyridin-6-yl)oxy)-1,2,3,4-tetrahydronaphthalen-1-yl)ureido)-N-(2-morpholinoethyl)-pyrimidine-2-carboxamide]
CN(C)[C@H]1CCCC[C@@H]1NC(=O)c1nc(NC(=O)N[C@H]2CC[C@@H](Oc3ccc4nnc(C(C)(C)C)n4c3)c3ccccc32)cc(C(C)(C)C)n1 [Example 165, 4-(tert-butyl)-6-(3-((1S,4R)-4-((3-(tert-butyl)-[1,2,4]triazolo[4,3-a]pyridin-6-yl)oxy)-1,2,3,4-tetrahydronaphthalen-1-yl)ureido)-N-((1S,2S)-2-(dimethylamino)-cyclohexyl)pyrimidine-2-carboxamide]
CC(C)(C)c1cc(NC(=O)N[C@H]2CC[C@@H](Oc3ccc4nnc(C(C)(C)C)n4c3)c3ccccc32)nc(C(=O)N2CC(F)(F)C2)n1 [Example 79, 1-(6-(tert-butyl)-2-(3,3-difluoroazetidine-1-carbonyl)pyrimidin-4-yl)-3-((1S,4R)-4-((3-(tert-butyl)-[1,2,4]triazolo[4,3-a]pyridin-6-yl)oxy)-1,2,3,4-tetrahydronaphthalen-1-yl)urea]
COC1CN(C(C)(C)CNC(=O)c2nc(NC(=O)N[C@H]3CC[C@@H](Oc4ccc5nnc(C(C)(C)OC)n5c4)c4ccccc43)cc(C(C)(C)C)n2)C1 [Example 172, 4-(tert-butyl)-N-(2-(3-methoxyazetidin-1-yl)-2-rnethylpropyl)-6-(3-((1S,4R)-4-((3-(2-methoxypropan-2-yl)-[1,2,4]triazolo[4,3-a]pyridin-6-yl)oxy)-1,2,3,4-tetrahydronaphthalen-1-yl)ureido)pyrimidine-2-carboxamide]
CCC(CC)(CNC(=O)c1nc(NC(=O)N[C@H]2CC[C@@H](Oc3ccc4nnc(C(C)(C)C)n4c3)c3ccccc32)cc(C(C)(C)C)n1)N(C)C [Example 168, 4-(tert-butyl)-6-(3-((1S,4R)-4-((3-(tert-butyl)-[1,2,4]triazolo[4,3-a]pyridin-6-yl)oxy)-1,2,3,4-tetrahydronaphthalen-1-yl)ureido)-N-(2-(dimethylamino)-2-ethylbutyl)pyrimidine-2-carboxamide]
CN(CCNC(=O)c1nc(NC(=O)N[C@H]2CC[C@@H](Oc3ccc4nnc(C(C)(C)C)n4c3)c3ccccc32)cc(C(C)(C)C)n1)C1CC1 [Example 164, 4-(tert-butyl)-6-(3-((1S,4R)-4-((3-(tert-butyl)-[1,2,4]triazolo[4,3-a]pyridin-6-yl)oxy)-1,2,3,4-tetrahydronaphthalen-1-yl)ureido)-N-(2-(cyclopropyl(methyl)-amino)ethyl)pyrimidine-2-carboxamide]
CC(C)c1nnc2ccc(O[C@@H]3CC[C@H](NC(=O)Nc4cc(C(C)(C)C)nc(C(=O)NCCN(C)C)n4)c4ccccc43)cn12 [Example 17, 4-(tert-Butyl)-N-(2-(dimethylamino)ethyl)-6-(3-((1S,4R)-4-((3-isopropyl-[1,2,4]triazolo[4,3-a]pyridin-6-yl)oxy)-1,2,3,4-tetrahydronaphthalen-1-yl)ureido)pyrimidine-2-carboxamide]
CC(C)(C)c1cc(NC(=O)N[C@H]2CC[C@@H](Oc3ccc4nnc(C5(C)COC5)n4c3)c3ccccc32)nc(C(=O)NCCN2CCOCC2)n1 [Example 98, 4-(tert-butyl)-6-(3-((1S,4R)-4-((3-(3-methyloxetan-3-yl)-[1,2,4]triazolo[4,3-a]pyridin-6-yl)oxy)-1,2,3,4-tetrahydronaphthalen-1-yl)ureido)-N-(2-morpholinoethyl)-pyrimidine-2-carboxamide]
CN(C)C1(CNC(=O)c2nc(NC(=O)N[C@H]3CC[C@@H](Oc4ccc5nnc(C(C)(C)C)n5c4)c4ccccc43)cc(C(C)(C)C)n2)CCCC1 [Example 163, 4-(tert-butyl)-6-(3-((1S,4R)-4-((3-(tert-butyl)-[1,2,4]-triazolo[4,3-a]pyridin-6-yl)oxy)-1,2,3,4-tetrahydronaphthalen-1-yl)ureido)-N-((1-(dimethylamino)-cyclopentyl)methyl)-pyrimidine-2-carboxamide]
COC(C)(C)c1nnc2ccc(O[C@@H]3CC[C@H](NC(=O)Nc4cc(C(C)(C)C)nc(COCCN5CCOCC5)n4)c4ccccc43)cn12 [Example 144, 1-(6-(tert-butyl)-2-((2-morpholinoethoxy)-methyl)pyrimidin-4-yl)-3-((1S,4R)-4-((3-(2-methoxypropan-2-yl)-[1,2,4]triazolo[4,3-a]pyridin-6-yl)oxy)-1,2,3,4-tetrahydronaphthalen-1-yl)urea]
CCOC(C)(C)c1nnc2ccc(O[C@@H]3CC[C@H](NC(=O)Nc4cc(C(C)(C)C)nc(C(=O)NCCN(C)C)n4)c4ccccc43)cn12 [Example 180, 4-(tert-Butyl)-N-(2-(dimethylamino)ethyl)-6-(3-((1S,4R)-4-((3-(2-ethoxypropan-2-yl)-[1,2,4]triazolo[4,3-a]pyridin-6-yl)oxy)-1,2,3,4-tetrahydronaphthalen-1-yl)ureido)pyrimidine-2-carboxamide formate salt]
CCC(CC)(CNC(=O)c1nc(NC(=O)N[C@H]2CC[C@@H](Oc3ccc4nnc(C(C)(C)COC)n4c3)c3ccccc32)cc(C(C)(C)C)n1)N(C)C [Example 147, 4-(tert-butyl)-N-(2-(dimethylamino)-2-ethylbutyl)-6-(3-((1S,4R)-4-((3-(1-methoxy-2-methylpropan-2-yl)-[1,2,4]triazolo[4,3-a]pyridin-6-yl)oxy)-1,2,3,4-tetrahydronaphthalen-1-yl)ureido)pyrimidine-2-carboxamide]
COCC(C)(C)c1nnc2ccc(O[C@@H]3CC[C@H](NC(=O)Nc4cc(C(C)(C)C)nc(C(=O)NCC5(N(C)C)CCOCC5)n4)c4ccccc43)cn12 [Example 150, 4-(tert-butyl)-N-((4-(dimethylamino)-tetrahydro-2H-pyran-4-yl)methyl)-6-(3-((1S,4R)-4-((3-(1-methoxy-2-methylpropan-2-yl)-[1,2,4]triazolo[4,3-a]pyridin-6-yl)oxy)-1,2,3,4-tetrahydronaphthalen-1-yl)ureido)pyrimidine-2-carboxamide]
